Key:
Assay in all cases: cryo-EM structure, […] Å
Format in all cases: binding
human MCC holoenzyme = target: T1, human MCC holoenzyme (Homo sapiens, UniProt Q9HCC0); settings: 10 mM acetyl-CoA, 25 mM NaHCO3, 10 mM MgCl2, 10 mM ATP, pH 7.4; CT-domain acyl-CoA pocket; not the natural substrate
T1 construct: gene MCCC2; endogenous untagged holoenzyme, native purification from Expi 293F cells on Strep-Tactin XT via covalently linked biotin (K681 of MCCα); α6β6 dodecamer; acyl-CoA site between CT-C of one β and CT-N of another β; with Methylcrotonoyl-CoA carboxylase subunit alpha, mitochondrial
T1 sequence (Q9HCC0 23-563): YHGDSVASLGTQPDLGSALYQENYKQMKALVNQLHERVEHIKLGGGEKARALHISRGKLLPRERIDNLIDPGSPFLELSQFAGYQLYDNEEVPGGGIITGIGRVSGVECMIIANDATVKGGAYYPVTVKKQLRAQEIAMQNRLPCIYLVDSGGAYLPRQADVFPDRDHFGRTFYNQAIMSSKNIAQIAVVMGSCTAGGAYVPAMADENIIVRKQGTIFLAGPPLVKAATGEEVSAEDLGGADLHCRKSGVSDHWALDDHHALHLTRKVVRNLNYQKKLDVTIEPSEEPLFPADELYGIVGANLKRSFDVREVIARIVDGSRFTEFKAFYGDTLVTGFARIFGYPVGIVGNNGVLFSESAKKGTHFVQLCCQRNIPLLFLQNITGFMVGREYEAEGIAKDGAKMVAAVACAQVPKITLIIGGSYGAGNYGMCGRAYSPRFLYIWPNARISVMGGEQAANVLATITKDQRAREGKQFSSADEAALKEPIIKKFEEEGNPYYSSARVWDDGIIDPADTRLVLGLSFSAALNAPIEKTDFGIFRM
T1 sequence (Q96RQ3 42-725 partner): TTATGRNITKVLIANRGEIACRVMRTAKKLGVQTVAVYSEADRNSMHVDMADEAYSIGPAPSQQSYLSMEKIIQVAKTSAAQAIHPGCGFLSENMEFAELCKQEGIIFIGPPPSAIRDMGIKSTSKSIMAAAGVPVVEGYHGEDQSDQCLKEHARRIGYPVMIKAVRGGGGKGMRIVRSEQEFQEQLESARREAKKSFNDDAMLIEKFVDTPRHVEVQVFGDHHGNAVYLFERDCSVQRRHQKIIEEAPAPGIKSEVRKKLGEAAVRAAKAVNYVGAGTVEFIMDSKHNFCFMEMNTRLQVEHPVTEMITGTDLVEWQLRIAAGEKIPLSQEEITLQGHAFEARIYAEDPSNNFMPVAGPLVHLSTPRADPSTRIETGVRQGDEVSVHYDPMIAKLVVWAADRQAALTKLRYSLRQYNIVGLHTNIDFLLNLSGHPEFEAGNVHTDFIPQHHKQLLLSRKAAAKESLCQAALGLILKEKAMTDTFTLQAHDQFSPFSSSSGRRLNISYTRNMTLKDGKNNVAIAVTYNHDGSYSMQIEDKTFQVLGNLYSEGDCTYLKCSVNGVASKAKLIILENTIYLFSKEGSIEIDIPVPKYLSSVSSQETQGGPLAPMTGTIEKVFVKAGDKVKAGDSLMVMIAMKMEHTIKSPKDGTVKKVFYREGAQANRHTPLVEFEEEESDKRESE

human PCC holoenzyme [1] = target: T2, human PCC holoenzyme (Homo sapiens, UniProt P05166); settings: 10 mM acetyl-CoA, 25 mM NaHCO3, 10 mM MgCl2, 10 mM ATP, pH 7.4; CT-domain active site; acyl group not resolved in map
T2 construct: gene PCCB; endogenous untagged holoenzyme, native purification from Expi 293F cells on Strep-Tactin XT via covalently linked biotin (K694 of PCCα); α6β6 dodecamer; acyl-CoA site between CT-C of one β and CT-N of another β; with Propionyl-CoA carboxylase alpha chain, mitochondrial
T2 sequence (P05166 29-539): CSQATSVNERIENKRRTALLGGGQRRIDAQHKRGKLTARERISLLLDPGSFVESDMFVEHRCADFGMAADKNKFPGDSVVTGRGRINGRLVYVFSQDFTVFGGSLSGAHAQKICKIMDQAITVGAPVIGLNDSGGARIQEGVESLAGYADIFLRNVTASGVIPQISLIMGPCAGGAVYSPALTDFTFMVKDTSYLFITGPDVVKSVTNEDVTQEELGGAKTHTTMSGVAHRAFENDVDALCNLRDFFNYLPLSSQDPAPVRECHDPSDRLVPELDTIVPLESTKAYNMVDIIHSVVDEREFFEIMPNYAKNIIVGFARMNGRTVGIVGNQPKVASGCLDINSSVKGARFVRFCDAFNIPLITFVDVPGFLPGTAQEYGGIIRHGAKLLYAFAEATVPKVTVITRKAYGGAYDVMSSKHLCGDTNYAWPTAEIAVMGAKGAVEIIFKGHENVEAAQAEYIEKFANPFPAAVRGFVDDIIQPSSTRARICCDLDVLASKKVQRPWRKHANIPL
T2 sequence (P05165 53-728 partner): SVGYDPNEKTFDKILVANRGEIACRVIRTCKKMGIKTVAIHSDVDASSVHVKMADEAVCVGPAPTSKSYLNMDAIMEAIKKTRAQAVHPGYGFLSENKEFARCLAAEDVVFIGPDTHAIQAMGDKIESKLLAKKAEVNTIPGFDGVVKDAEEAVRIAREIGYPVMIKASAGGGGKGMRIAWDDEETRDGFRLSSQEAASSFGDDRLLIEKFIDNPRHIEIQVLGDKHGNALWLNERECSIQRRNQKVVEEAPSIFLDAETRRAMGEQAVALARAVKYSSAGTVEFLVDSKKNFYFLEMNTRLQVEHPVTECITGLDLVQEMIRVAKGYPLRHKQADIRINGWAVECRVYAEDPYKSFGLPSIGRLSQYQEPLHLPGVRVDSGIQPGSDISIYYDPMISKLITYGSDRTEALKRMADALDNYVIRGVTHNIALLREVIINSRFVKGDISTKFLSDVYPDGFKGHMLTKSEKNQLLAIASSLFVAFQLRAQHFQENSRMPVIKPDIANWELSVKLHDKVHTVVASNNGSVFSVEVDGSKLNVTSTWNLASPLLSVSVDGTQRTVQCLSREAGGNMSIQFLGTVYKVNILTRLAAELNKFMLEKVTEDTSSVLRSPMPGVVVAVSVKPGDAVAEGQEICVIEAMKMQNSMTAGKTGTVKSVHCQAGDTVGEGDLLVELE

human PCC holoenzyme [2] = target: T2, human PCC holoenzyme; settings: 10 mM propionyl-CoA, 25 mM NaHCO3, 10 mM MgCl2, 10 mM ATP, pH 7.4; CT-domain active site; acyl group not resolved in map

| SMILES | cryo-EM structure, 2.85 Å (human MCC holoenzyme) | cryo-EM structure, 3.38 Å (human PCC holoenzyme [1]) | cryo-EM structure, 2.80 Å (human PCC holoenzyme [2]) |
| --- | --- | --- | --- |
| CC(=O)SCCNC(=O)CCNC(=O)[C@H](O)C(C)(C)COP(=O)(O)OP(=O)(O)OC[C@H]1O[C@@H](n2cnc3c(N)ncnc32)[C@H](O)[C@@H]1OP(=O)(O)O [acetyl-CoA] | PCC and MCC holoenzymes in the acetyl-CoA-bound state (referred to as PCC-ACO and MCC-ACO) | The acetyl-CoA in the PCC-ACO structure has a binding mode similar to the propionyl-CoA | – |
| CCC(=O)SCCNC(=O)CCNC(=O)[C@H](O)C(C)(C)COP(=O)(O)OP(=O)(O)OC[C@H]1O[C@@H](n2cnc3c(N)ncnc32)[C@H](O)[C@@H]1OP(=O)(O)O [propionyl-CoA] | – | – | six propionyl-CoA molecules are observed binding to the six active sites of CT domains |

Reference: publication doi:10.1101/2024.04.30.591959v2, “Structural insights into human propionyl-CoA carboxylase (PCC) and 3-methylcrotonyl-CoA carboxylase (MCC)” (biorxiv, 2024)
